Assay [1] concerns the target T1, human α1A adrenergic receptor (Homo sapiens, UniProt P35348).
T1 construct: host or cells: LM(tk-) cells, line L-α1C
T1 sequence (P35348 1-466): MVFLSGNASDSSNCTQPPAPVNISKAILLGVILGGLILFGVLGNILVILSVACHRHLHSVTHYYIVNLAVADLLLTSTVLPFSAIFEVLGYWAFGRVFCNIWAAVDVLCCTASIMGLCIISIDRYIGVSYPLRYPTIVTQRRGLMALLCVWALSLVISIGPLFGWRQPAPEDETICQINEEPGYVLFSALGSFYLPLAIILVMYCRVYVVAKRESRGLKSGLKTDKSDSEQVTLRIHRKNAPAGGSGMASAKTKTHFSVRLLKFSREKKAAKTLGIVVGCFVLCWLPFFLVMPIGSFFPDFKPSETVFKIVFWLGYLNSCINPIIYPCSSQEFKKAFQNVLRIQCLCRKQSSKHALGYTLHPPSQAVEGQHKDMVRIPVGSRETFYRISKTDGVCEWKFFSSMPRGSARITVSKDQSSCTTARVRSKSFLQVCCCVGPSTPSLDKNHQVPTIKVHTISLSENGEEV
Put plainly: Binding at human α1A adrenergic receptor. The settings on record: Table 8; read-out: hα1A Ki. An excerpt: α1 Human Adrenergic Receptors: To determine the binding of compounds to human α1 receptors, LM(tk−) cell lines stably transfected with the genes encoding the α1a, α1b, and α1d receptors were used. The nomenclature describing the α1 receptors was changed recently, such that the receptor formerly designated α1a is now designated α1d, and the receptor formerly designated α1c is now designated α1a. The cell lines expressing these receptors were deposited with the ATCC before the nomenclature change and reflect the subtype designations formerly assigned to these receptors. Thus, the cell line expressing the receptor described herein as the α1a receptor was deposited with the ATCC on Sep. […] The cell line expressing receptor described herein as the α1d receptor was deposited with the ATCC on Sep. […] The cell line expressing the α1b receptor is designated L-α1B, and was deposited on Sep.
(§1) The binding affinity (Ki) of these compounds were tested according to the protocols described herein at the following receptors; human α1A, α1B, α1D, α2A, α2B, and α2C adrenergic receptors; human Y1, Y2, Y4, and Y5 receptors; and N-Methyl-D-aspartic acid (NMDA) receptor channels. The binding interactions of these compounds were additionally tested at the norepinephrine (NE) transporter (NE uptake) and serotonin (5-hydroxytryptamine (5HT)) transporter (5HT uptake) according to protocols described herein

Assay [2] deals with T2, human α2B adrenergic receptor (Homo sapiens, UniProt P18089).
T2 construct: host or cells: LM(tk-) cells, line L-NGC-α2B
T2 sequence (P18089 1-450): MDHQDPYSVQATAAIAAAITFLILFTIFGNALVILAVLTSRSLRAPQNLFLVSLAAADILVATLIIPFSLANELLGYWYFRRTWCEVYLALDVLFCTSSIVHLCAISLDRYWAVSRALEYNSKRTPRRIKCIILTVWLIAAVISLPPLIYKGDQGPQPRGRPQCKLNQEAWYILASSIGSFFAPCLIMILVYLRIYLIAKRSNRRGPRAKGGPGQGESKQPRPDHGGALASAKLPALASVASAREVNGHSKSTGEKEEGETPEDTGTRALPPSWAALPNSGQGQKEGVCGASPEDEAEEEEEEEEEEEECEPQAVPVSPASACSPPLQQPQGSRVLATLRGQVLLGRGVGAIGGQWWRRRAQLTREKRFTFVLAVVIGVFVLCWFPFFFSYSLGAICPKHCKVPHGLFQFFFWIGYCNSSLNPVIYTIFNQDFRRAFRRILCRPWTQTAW
Put plainly: Binding at human α2B adrenergic receptor. The following applies: Table 8; read-out: hα2B Ki.
Description: α2 Human Adrenergic Receptors: To determine the binding of compounds to human α2 receptors, LM(tk−) cell lines stably transfected with the genes encoding the α2A, α2B, and α2C receptors were used. The cell line expressing the α2A receptor is designated L-α2A, and was deposited on Nov. 6, 1992, under ATCC Accession No. CRL 11180. The cell line expressing the α2B receptor is designated L-NGC-α2B, and was deposited on Oct. 25, 1989, under ATCC Accession No. CRL 10275. The cell line expressing the α2C receptor is designated L-α2C, and was deposited on Nov. 6, 1992, under ATCC Accession No. CRL-11181. Cell lysates were prepared as described herin, and suspended in 25 mM glycyiglycine buffer (pH 7.6 at room temperature). Equilibrium competition binding assay were performed using […] (0.5 nM), and nonspecific binding was determined by incubation with 10 μM phentolamine. The bound radioligand was separated by filtration through GF/B filters using a cell harvester.
as §1

In assay [3] the test system is distension induced contractions of the rat bladder. In words: Distension-induced rhythmic contraction (DIRC) model, micturition reflex in anesthetized rats. The class given is in vivo. The text has this:
This model is widely considered to be predictive for the actions of drugs to treat human urge incontinence (also refered to as detrusor instability or unstable bladder). Examples of drugs that are active in this model which also are used therapeutically in humans include oxybutynin and baclofen (Morikawa et al, 1992); imipramine and nortriptyline (Pietra et al, 1990); and nifedipine and terodiline (Guarneri et al, 1993).
Female Sprague Dawley rats weighing approximately 300 g were anesthetized with subcutaneous urethane (1.2 g/kg). The trachea was cannulated with PE240 tubing to provide a clear airway throughout the experiment. A midline abdominal incision was made and the left and right ureters were isolated. The ureters were ligated distally (to prevent escape of fluids from the bladder) and cannulated proximally with PE10 tubing. The incision was closed using 4-0 silk sutures, leaving the PE10 lines routed to the exterior for the elimination of urine. The bladder was canulated via the transurethral route using PE50 tubing inserted 2.5 cm beyond the urethral opening. This cannula was secured to the tail using tape and connected to a pressure transducer. To prevent leakage from the bladder, the cannula was tied tightly to the exterior urethral opening using 4-0 silk.
To initiate the micturition reflex, the bladder was first emptied by applying pressure to the lower abdomen, and then filled with normal saline in 100 μl increments (maximum=2 ml) until spontaneous bladder contractions occurred (typically 20-40 mmHg at a rate of one contraction every 2 to 3 minutes. Once a regular rhythm was established, vehicle (saline) or test compounds were administered i.v. to examine their effects on bladder activity. The effect of a compound which inhibited the micturition reflex was expressed as its “disappearance time”, defined as the time between successive bladder contractions in the presence of the test compound minus the time between contractions before compound administration.

Structures are written as SMILES.

Take `Cc1nc(NC(=N)N)nc2ccc3ccccc3c12` [Compound 1007A]: the Ki in assay [1] was found to be 3.27 µM.
As to `Cc1cc(NC(=N)N)nc2ccc(Cl)cc12` [Compound 4005A, N-(6-chloro-4-methyl-2-quinolinyl)guanidine], the Ki in assay [2] worked out at 3.75 µM. In addition, the “inhibition of distention-induced contractions of the rat bladder” value in assay [3] (1 mg/kg, i.v.) was “complete inhibition”. For the same compound, in assay [3] (i.v. administration, anesthetized rat (figure legends)), the “time for which inhibition of bladder activity persisted” value stood at 35 min.

The values above are taken from patent publication US20030176314A1, “Compounds for the treatment of pain” (priority 2001, published 2003).
